According to patent US20080044904A1, “Glyphosate N-acetyltransferase (GAT) confers glyphosate resistance when expressed in plastids” (priority 2005, published 2008):

Experiments:
[1] = test system: wild-type leaf sections; assay: Leaf section test on RMOP culture medium containing glyphosate, wild type control; assay type: cell-based, tobacco; conditions: RMOP medium containing 100 μm glyphosate (Glyphosate-isopropylammonium); three-week-old cultures
From the text: (§1) Shown are three-week-old cultures initiated from Nt-pMHB125 and Nt-pMHB126 leaves and wild type control. The culture medium and general tissue culture protocols are described in references Svab and Maliga, 1993; and Lutz et al., 2006.
(§2) The ability of leaf sections or stem sections of plants to germinate and/or grow as green plants in a culture containing selective levels of herbicides is a reliable assay of glyphosate resistance (Ye et al. (2003) Plant Physiol., 133:402-410; Ye et al. (2001) Plant J., 25:261-270). Selective levels of glyphosate in the culture medium were in the range of 50 μm to 200 μm, to which plants expressing the CP4 EPSPS gene were resistant. Therefore, sections of the Nt-pMHB125, Nt-pMHB126 and Nt-pMHB127 leaves were inoculated onto RMOP medium containing 100 μm glyphosate (Glyphosate-isopropylammonium). […] Such high level of resistance was sufficient to protect the plants from glyphosate treatment under filed conditions. The new glyphosate resistance (GAT) genes, when expressed in plastids, enable efficient weed control with an environmentally friendly herbicide. Since plastids are not transmitted via pollen in most crops, the GAT gene will not be disseminated via pollen, providing an efficient containment tool (Bock, R. (2001) J. Mol. Biol., 312:425-438; Maliga, P. (2004) Annu. Rev. Plant Biol., 55:289-313).

[2] = test system: Nt-pMHB125 and Nt-pMHB126 leaves (tobacco cells expressing GAT in chloroplasts); assay: Leaf section test on RMOP culture medium containing glyphosate, plants expressing GAT in chloroplasts; assay type: cell-based
From the text: as §1, §2

Structure (SMILES): O=C(O)CNCP(=O)(O)O [glyphosate, N-phosphonomethylglycine]
- growth of wild-type leaf sections in the presence of the herbicide [1]: failed to grow and bleached
- resistance of tobacco cells expressing GAT in chloroplasts ([2]; 100 μM glyphosate in the RMOP culture medium, three-week-old cultures from Nt-pMHB125 and Nt-pMHB126 leaves): resistant
- growth of Nt-pMHB125 and Nt-pMHB126 leaf sections in the presence of the herbicide ([2]; RMOP medium containing 100 μm glyphosate (Glyphosate-isopropylammonium), three-week-old cultures): formed abundantly proliferating green calli
